The text below walks through data of patent publication US8748618B2, “Inhibitors of inv(16) leukemia” (University of Virginia Patent Foundation, priority 2009, dated 2014).

Series [1] has as its target CBFβ-SMMHC:RD (CBFβ-SMMHC binding to the Runt domain). Nature of the series: FRET assay, inhibition of CBFβ-SMMHC binding to the Runt domain. Conditions: for IC50 FRET (CBFβ-SMMHC:RD, 20 nM both): 20 nM both proteins. Here is the method:
FRET assay. […] We fused the green fluorescent protein derivative Cerulean to the N-terminus of the Runt domain and the green fluorescent protein derivative Venus to the N-terminus of CBFβ-SMMHC (as well as to CBFβ (Gorczynski, Grembecka et al. 2007)). The ratio of the emission intensities at 525 nm and 474 nm, measured after excitation at 433 nm, was used as the readout in this assay. The dynamic range for the FRET assay was determined by adding a 30-fold excess of untagged CBFβ-SMMHC (or CBFβ in the case of CBFβ—Runt domain binding) to the assay and the associated change in the FRET ratio was defined as 100% inhibition.
As shown by Shoichet and co-workers (Seidler, McGovern et al. 2003), a primary source of false positives in any screen is micelle formation. […] A substantial loss of activity in the presence of detergent is a hallmark of inhibition by micelle formation and such compounds are thus identified as false positives. In addition, we are also incubating compound with protein and checking by mass spectroscopy to ensure that positive hits are not acting by covalent addition to either of the proteins.

A further series has as its system Jurkat cells. Nature of the series: MTT assay, growth of Jurkat cells. Format: cell-based. Conditions: MTT, FIG. 4B. The source says: (§1) We have tested several of the compounds we have synthesized for their effects on ME-1 cells, a leukemia cell line harboring the inv(16) (Yanagisawa, Horiuchi et al. 1991). […] AI-4-57 has also been tested against the Kasumi-1, Jurkat, and RS4; 11 leukemia cell lines (FIG. 4.B). […] We have also examined effects on apoptosis using flow cytometry to measure Annexin V/PI (propidium iodide) positivity. […] The selectivity for specific cell lines and the correlation of activity in the FRET assay with effects on inv(16) cells all support the hypothesis that the compounds are hitting the desired target.
(§2) Below are two exemplary dimeric compound formulas, shown here without the possible substituents indicated elsewhere herein.
For orientation: Formazan colour is commonly taken as a measure of viable cells.

The subject of series [2] is ME-1 cells. Nature of the series: MTT viability assay, growth of ME-1 cells. The conditions noted are these: MTT, FIG. 4A. Format: cell-based, human.
Description: as §1
The dimer with a 7 atom linker (AI-4-62) has been tested for effects on the growth of the ME-1 cell line (see FIG. 7), a leukemia cell line with the inv(16).

The next series has as its system Kasumi-1 cells. Kind of series: MTT assay, growth of Kasumi-1 cells. Format: cell-based. The conditions noted are these: MTT, FIG. 4B.
Description: as §1, §2

The target of another series is CBFβ (Homo sapiens (Human), UniProt Q13951). Nature of the series: NMR chemical shift perturbation with CBFβ. Format: binding. Conditions: for NMR with CBFβ + 250 uM compound, CSP G 112: residue G 112; for NMR with CBFβ + 250 uM compound, CSP K 98: residue K 98; for Precipitation in the NMR sample: 250 uM compound with CBFβ. The source says: Validation of binding of a small molecule inhibitor to its protein target is an essential step in developing potent inhibitors. This can be readily achieved using either NMR spectroscopy or X-ray crystallography. In the case of X-ray crystallography, this is achieved by co-crystallization of the protein with the ligand and determination of the structure. In the case of NMR spectroscopy, the structure of a compound-protein complex can also be determined. In addition, chemical shift perturbations of the protein NMR spectrum (typically 2D ^15N—^1H HSQC or ^13C—^1H HSQC) in the presence of compounds can both confirm binding to the target and localize the binding site on a protein (Pellecchia, Sem et al. 2002; Salvatella and Giralt 2003). The latter method is a quick and efficient method to confirm binding to the protein and to determine the binding site when appropriate labeled samples are available and the resonance assignments are known. Such data can also be used to dock the small molecule to the protein. Because the structure of CBFβ has been solved by NMR (Huang, Peng et al. 1999), resonance assignments are available and we have employed this approach as an additional screen to ensure the validity of the inhibitors we are developing and to determine the binding site (see below).
CBFβ, sequence (Q13951 1-141, species assumed): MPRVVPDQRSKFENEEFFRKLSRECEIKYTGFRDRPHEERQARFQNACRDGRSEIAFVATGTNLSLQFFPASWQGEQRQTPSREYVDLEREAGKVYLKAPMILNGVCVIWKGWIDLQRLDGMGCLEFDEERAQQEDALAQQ

A further series deals with RS4; 11 cells. Nature of the series: MTT assay, growth of RS4;11 cells. Format: cell-based. The conditions noted are these: MTT, FIG. 4B.
Description: as §1, §2

Series [3] deals with ME-1 cells. Kind of series: Apoptosis by flow cytometry, Annexin V/PI positivity. Conditions: FIG. 4C. It counts as cell-based, human.
Description: as §1
On the technique in general: Flow cytometry measures light scatter and fluorescence of single cells or particles in a stream.

For series [4] the following is noted: ip injection; NCI Developmental Therapeutics website; cited from earlier work.
A further series concerns NCI 60 cell lines. The conditions noted are these: for 79% of the cell lines; cited from earlier work.

As to `FC(F)(F)c1cccc2[nH]c(-c3ccccn3)nc12` [AI-4-47], the “IC50 FRET (CBFβ-SMMHC:RD, 20 nM both)” value in series [1] (Table 1 monomers) is recorded as “Interference with assay”. Consider `COc1ccc2[nH]c(-c3ccccn3)nc2c1` [AI-4-57], for which, in the series on Jurkat cells, the “Growth of Jurkat cells” value was “No effect on growth”. Further, the “Growth of ME-1 cells” value in the series on ME-1 cells [2] was “effective inhibition of growth”. Besides, the “Growth of Kasumi-1 cells” value in the series with Kasumi-1 cells was “modest effect”. In addition, on CBFβ (250 uM compound), the “NMR with CBFβ + 250 uM compound, CSP G 112” value is reported as 0.039 ppm and the “NMR with CBFβ + 250 uM compound, CSP K 98” value (shortened to “NMR … CSP K 98”) came out at 0.026 ppm. The “Growth of RS4;11 cells” value in the series on RS4; 11 cells is given as “No effect on growth”.

For `COc1ccc(-c2nc3cc(OC)ccc3[nH]2)nc1` [AI-4-61], at CBFβ (250 uM compound), the “NMR with CBFβ + 250 uM compound, CSP G 112” value is 0.015 ppm and the “NMR … CSP K 98” value is recorded as 0.013 ppm. As for `CC(C)Oc1ccc2[nH]c(-c3ccccn3)nc2c1` [AI-4-70], the “NMR with CBFβ + 250 uM compound, CSP G 112/K 98 (in words)” value (from here on “NMR … (in words)”) on CBFβ (250 uM compound) is given as “No CSP”.

Take `c1ccc(-c2nc3cc(N4CCOCC4)ccc3[nH]2)nc1` [AI-10-3]: the “NMR … (in words)” value at CBFβ (250 uM compound) is listed as “No CSP”. In the case of `CN(C)c1ccc2[nH]c(-c3ccc(OCCOCCOc4ccc(-c5nc6cc(N(C)C)ccc6[nH]5)nc4)cn3)nc2c1` [AI-10-21], the “IC50 FRET (CBFβ-SMMHC:RD, 20 nM both)” value in series [1] (Table 2 dimers) is “Interference with assay”. As to `CSc1ccc2[nH]c(-c3ccccn3)nc2c1` [AI-10-35], at CBFβ (250 uM compound), the “NMR with CBFβ + 250 uM compound, CSP G 112” value worked out at 0.037 ppm and the “NMR … CSP K 98” value amounted to 0.027 ppm. Regarding `FC(F)(F)Oc1ccc2[nH]c(-c3ccccn3)nc2c1` [AI-10-47], the “NMR … (in words)” value on CBFβ (250 uM compound) is “No CSP”. Also, at CBFβ, the “Precipitation in the NMR sample” value is given as “some precipitation”. For the compound `COc1ccc2[nH]c(-c3ncccc3OC)nc2c1` [AI-10-53], at CBFβ (250 uM compound), the “NMR with CBFβ + 250 uM compound, CSP G 112” value is on record as 0.028 ppm and the “NMR … CSP K 98” value is given as 0.02 ppm. Regarding `O=C(O)c1ccc2[nH]c(-c3ccccn3)nc2c1` [AI-10-57], the “NMR … (in words)” value on CBFβ (250 uM compound) was “No CSP”.

As to `Oc1ccc2[nH]c(-c3ccccn3)nc2c1` [AI-10-61], on CBFβ (250 uM compound), the “NMR … (in words)” value was “No CSP”. Regarding `Cc1cccnc1-c1nc2cc(OC(F)(F)F)ccc2[nH]1` [AI-10-63], the Δ500 entry in [1] is “Δ500 = 61%”.

With `FC(F)(F)Oc1ccc2[nH]c(-c3ncccc3C(F)(F)F)nc2c1` [AI-10-64], the Δ500 entry in series [1] was “Δ500 = 50%”. As for `COc1ccc2[nH]c(-c3ncccc3C(F)(F)F)nc2c1` [AI-10-69], the Δ167 result in [1] was “Δ167 = 18%”. Take `NC(=O)c1ccc2[nH]c(-c3ccccn3)nc2c1` [AI-10-70]: in series [1], the Δ500 entry is listed as “Δ500 = 61%”. Turning to `c1ccc(-c2nc3cc(N4CCCCC4)ccc3[nH]2)nc1` [AI-10-82], in series [1] (Table 1 monomers), the “IC50 FRET (CBFβ-SMMHC:RD, 20 nM both)” value is recorded as “Interference with assay”. In addition, at CBFβ (250 uM compound), the “NMR with CBFβ + 250 uM compound, CSP G 112” value came to 0.032 ppm and the “NMR … CSP K 98” value is on record as 0.016 ppm.

In the case of `c1ccc(-c2nc3cc(N4CCCC4)ccc3[nH]2)nc1` [AI-10-83], the “IC50 FRET (CBFβ-SMMHC:RD, 20 nM both)” value in series [1] (Table 1 monomers) is given as “Interference with assay”. On CBFβ (250 uM compound), the “NMR with CBFβ + 250 uM compound, CSP G 112” value came out at 0.087 ppm and the “NMR … CSP K 98” value was determined as 0.039 ppm. Further, at CBFβ (250 uM compound, residue L 97), the “NMR with CBFβ + 250 uM compound, CSP L 97” value came out at 0.034 ppm. With `c1ccc(-c2nc3cc(-n4ccnc4)ccc3[nH]2)nc1` [AI-10-88], the “NMR … (in words)” value at CBFβ (250 uM compound) is “No CSP”. With `FC(F)(F)Oc1cc(-c2cccnc2)c2[nH]c(-c3ccccn3)nc2c1` [AI-10-96], the “NMR … (in words)” value at CBFβ (250 uM compound) is listed as “No CSP”.

With `FC(F)(F)Oc1cc2nc(-c3ccccn3)[nH]c2cc1N1CCCC1` [AI-10-97], the “IC50 FRET (CBFβ-SMMHC:RD, 20 nM both)” value in [1] (Table 1 monomers) is “Interference with assay”. Besides, at CBFβ (250 uM compound), the “NMR with CBFβ + 250 uM compound, CSP G 112” value is reported as 0.012 ppm and the “NMR … CSP K 98” value came to 0.006 ppm. As for `c1cc(-c2nc3cc(N4CCCC4)ccc3[nH]2)ncc1OCCOCCOc1ccc(-c2nc3cc(N4CCCC4)ccc3[nH]2)nc1` [AI-10-98], the “IC50 FRET (CBFβ-SMMHC:RD, 20 nM both)” value in series [1] (Table 2 dimers) was “Interference with assay”. For the compound `COc1ccc(-c2nc3cc(N4CCCC4)ccc3[nH]2)nc1` [AI-10-101], in series [1] (Table 1 monomers), the “IC50 FRET (CBFβ-SMMHC:RD, 20 nM both)” value is listed as “Interference with assay”. In the case of `Cc1ccc2[nH]c(-c3ccccn3)nc2c1C` [LD-1-23], the “NMR … (in words)” value at CBFβ (250 uM compound) is recorded as “No CSP”. Further, at CBFβ, the “Precipitation in the NMR sample” value is recorded as “some precipitation”.

For `CCOc1ccc2[nH]c(-c3ccccn3)nc2c1` [LD-1-29], the “Apoptosis (AnnexinV/PI)” value in the series with ME-1 cells [3] (40 μM) was “substantial apoptosis”. Further, the “Percentage of apoptotic cells (AnnexinV/PI)” value in the series on ME-1 cells [3] (3 different concentrations) is “clear dose-dependent increase in the percentage of apoptotic cells”. In addition, in the series with ME-1 cells [2], the “Growth of ME-1 cells” value was “effective inhibition of growth”. In addition, at CBFβ (250 uM compound), the “NMR with CBFβ + 250 uM compound, CSP G 112” value was 0.026 ppm and the “NMR … CSP K 98” value is reported as “no change”. `Fc1ccc2[nH]c(-c3ccccn3)nc2c1` [LD-1-31]: at CBFβ (250 uM compound), the “NMR … (in words)” value was “No CSP”. On CBFβ, the “Precipitation in the NMR sample” value is on record as “Strong precipitation”. As to `COc1c(F)cc2[nH]c(-c3ccccn3)nc2c1F` [LD-1-39], the “NMR … (in words)” value on CBFβ (250 uM compound) is “No CSP”. In the case of `COc1ccc(-c2nc3cc(OC)ccc3[nH]2)c(O)c1` [LD-1-73], the Δ110 result in series [1] was “Δ110 = 30%”. As for `CN(C)c1ccc2[nH]c(-c3ccccn3)nc2c1` [LD-2-63], in series [1] (Table 1 monomers), the “IC50 FRET (CBFβ-SMMHC:RD, 20 nM both)” value is listed as “Interference with assay”. At CBFβ (250 uM compound), the “NMR with CBFβ + 250 uM compound, CSP G 112” value is listed as 0.037 ppm and the “NMR … CSP K 98” value is 0.023 ppm. As for `COc1ccc2[nH]c(-c3cccc(C)n3)nc2c1` [LD-2-89], the Δ333 entry in series [1] is given as “Δ333 = 17%”.

`COc1ccnc(-c2nc3cc(OC)ccc3[nH]2)c1` [LD-2-101]: the “NMR … (in words)” value on CBFβ (250 uM compound) was “No CSP”.

For `COc1ccc2[nH]c(-c3ccccn3)nc2c1` [NCI-320656, reference compound], the Tolerated by mice entry in series [4] is recorded as “up to 200 mg/kg/day”. Also, in the series with NCI 60 cell lines, the GI50 (commonly the concentration at which growth is held to half of that of the control) was at least 100 µM. Further, at CBFβ (250 uM compound), the “NMR with CBFβ + 250 uM compound, CSP G 112” value was found to be 0.039 ppm and the “NMR … CSP K 98” value amounted to 0.026 ppm.
